Paper PMC3907537, “Evaluation of the Endothelin Receptor Antagonists Ambrisentan, Bosentan, Macitentan, and Sitaxsentan as Hepatobiliary Transporter Inhibitors and Substrates in Sandwich-Cultured Human Hepatocytes” (PLoS ONE, 2014)
Several values for one entry are separate records, joined by “and”; a condition that tells them apart may be missing. Equal values may be shown once. Read-outs that look alike come from different tables or passages of the source.

Key:
BSEP = target: T1, BSEP (Homo sapiens, UniProt O95342); test: BSEP inhibition, taurocholate transport in Sf9 membrane vesicles; format: biochemical; details: taurocholate 2 µM, mean ± SD of 3 independent studies in duplicate, tested 0.14–100 µM
T1 construct: purchased Solvo Biotechnology, Budaors, Hungary; host or cells: Sf9 insect cells (membrane vesicles)
T1 sequence (O95342 whole entry): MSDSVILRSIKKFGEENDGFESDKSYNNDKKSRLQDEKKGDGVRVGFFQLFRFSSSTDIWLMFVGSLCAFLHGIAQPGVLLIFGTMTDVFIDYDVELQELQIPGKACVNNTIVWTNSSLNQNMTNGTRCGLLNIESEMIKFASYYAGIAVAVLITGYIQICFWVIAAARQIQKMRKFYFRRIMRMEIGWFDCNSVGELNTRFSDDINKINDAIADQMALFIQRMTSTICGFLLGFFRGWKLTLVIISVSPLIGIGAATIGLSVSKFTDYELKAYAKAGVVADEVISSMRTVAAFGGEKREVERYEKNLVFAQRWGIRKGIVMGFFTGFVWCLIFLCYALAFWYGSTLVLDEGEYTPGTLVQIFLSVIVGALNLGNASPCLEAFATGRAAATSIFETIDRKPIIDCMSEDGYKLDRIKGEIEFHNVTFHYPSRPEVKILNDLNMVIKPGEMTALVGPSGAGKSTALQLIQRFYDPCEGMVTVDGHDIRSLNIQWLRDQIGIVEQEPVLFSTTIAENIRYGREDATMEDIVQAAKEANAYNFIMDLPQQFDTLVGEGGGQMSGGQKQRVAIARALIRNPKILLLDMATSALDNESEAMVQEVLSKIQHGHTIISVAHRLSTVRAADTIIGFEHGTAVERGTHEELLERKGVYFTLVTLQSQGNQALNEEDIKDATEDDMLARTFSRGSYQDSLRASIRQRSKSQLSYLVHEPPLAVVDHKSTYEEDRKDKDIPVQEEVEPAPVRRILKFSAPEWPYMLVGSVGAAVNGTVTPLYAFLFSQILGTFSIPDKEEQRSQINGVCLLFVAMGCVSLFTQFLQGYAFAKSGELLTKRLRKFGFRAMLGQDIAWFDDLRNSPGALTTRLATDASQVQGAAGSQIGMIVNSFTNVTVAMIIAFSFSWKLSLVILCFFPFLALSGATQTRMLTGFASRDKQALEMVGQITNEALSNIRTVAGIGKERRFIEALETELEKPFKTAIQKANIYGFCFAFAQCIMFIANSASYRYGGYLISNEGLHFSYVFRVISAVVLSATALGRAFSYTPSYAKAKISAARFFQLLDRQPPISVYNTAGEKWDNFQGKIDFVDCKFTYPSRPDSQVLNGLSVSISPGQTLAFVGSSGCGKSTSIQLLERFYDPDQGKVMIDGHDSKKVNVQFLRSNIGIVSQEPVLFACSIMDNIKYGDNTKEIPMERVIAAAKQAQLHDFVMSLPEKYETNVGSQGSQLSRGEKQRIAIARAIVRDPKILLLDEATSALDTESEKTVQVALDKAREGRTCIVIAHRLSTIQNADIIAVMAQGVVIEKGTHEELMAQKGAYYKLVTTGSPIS
Text: (§1) Chinese Hamster Ovary (CHO) cells were obtained from Professor B. Stieger’s laboratory at University of Zurich, Zurich, Switzerland. Madin-Darby Canine Kidney strain II (MDCKII) cells were obtained from Nederlands Kanker Instituut (NKI), Amsterdam, Netherlands. NTCP-CHO cells, BSEP and MRP2 membrane vesicles were developed and validated at Solvo Biotechnology, Budaors, Hungary.
(§2) BSEP and MRP2 inhibition was studied in membrane vesicles isolated from sf9 insect cells overexpressing the respective transporters. Vesicular transport inhibition assays used test compounds incubated with membrane vesicle preparations (total protein: 50 µg/well) and probe substrates, taurocholate (2 µM) for BSEP or Estradiol-17-beta-glucuronide (0.2 µM) for MRP2, in the absence or presence of ATP. Reaction mixtures were preincubated for 15 min at 37°C. Reactions were started by the addition of 25 µL of 12 mM MgATP or assay buffer (for background controls), preincubated separately. Reactions were stopped after 5 min by the addition of 200 µL of ice-cold washing buffer and immediate filtration via glass fiber filters mounted to a 96-well plate (filter plate). The filters were washed, dried and the amount of substrate inside the filtered vesicles determined by liquid scintillation. Cyclosporin A (20 µM) or benzbromarone (100 µM), for BSEP or MRP2, respectively, were used as positive control inhibitors. Control membranes lacking transporter expression were used as negative control.
(§3) All assays were performed in duplicate. IC50 was defined as the test article concentration needed to inhibit the maximal transporter specific accumulation by 50%. IC50 values were calculated using non-linear fitting of % inhibition versus concentration to a sigmoidal curve with a variable Hill Coefficient using GraphPad Prism 5 (GraphPad Software Inc., San Diego, CA).

MRP2 = target: T2, MRP2 (Homo sapiens, UniProt Q92887); test: MRP2 inhibition, estradiol-17-beta-glucuronide transport in Sf9 membrane vesicles; format: biochemical; details: E217βG 0.2 µM, single experiment in duplicate, tested 0.14–100 µM
T2 construct: purchased Solvo Biotechnology, Budaors, Hungary; host or cells: Sf9 insect cells (membrane vesicles)
T2 sequence (Q92887 whole entry): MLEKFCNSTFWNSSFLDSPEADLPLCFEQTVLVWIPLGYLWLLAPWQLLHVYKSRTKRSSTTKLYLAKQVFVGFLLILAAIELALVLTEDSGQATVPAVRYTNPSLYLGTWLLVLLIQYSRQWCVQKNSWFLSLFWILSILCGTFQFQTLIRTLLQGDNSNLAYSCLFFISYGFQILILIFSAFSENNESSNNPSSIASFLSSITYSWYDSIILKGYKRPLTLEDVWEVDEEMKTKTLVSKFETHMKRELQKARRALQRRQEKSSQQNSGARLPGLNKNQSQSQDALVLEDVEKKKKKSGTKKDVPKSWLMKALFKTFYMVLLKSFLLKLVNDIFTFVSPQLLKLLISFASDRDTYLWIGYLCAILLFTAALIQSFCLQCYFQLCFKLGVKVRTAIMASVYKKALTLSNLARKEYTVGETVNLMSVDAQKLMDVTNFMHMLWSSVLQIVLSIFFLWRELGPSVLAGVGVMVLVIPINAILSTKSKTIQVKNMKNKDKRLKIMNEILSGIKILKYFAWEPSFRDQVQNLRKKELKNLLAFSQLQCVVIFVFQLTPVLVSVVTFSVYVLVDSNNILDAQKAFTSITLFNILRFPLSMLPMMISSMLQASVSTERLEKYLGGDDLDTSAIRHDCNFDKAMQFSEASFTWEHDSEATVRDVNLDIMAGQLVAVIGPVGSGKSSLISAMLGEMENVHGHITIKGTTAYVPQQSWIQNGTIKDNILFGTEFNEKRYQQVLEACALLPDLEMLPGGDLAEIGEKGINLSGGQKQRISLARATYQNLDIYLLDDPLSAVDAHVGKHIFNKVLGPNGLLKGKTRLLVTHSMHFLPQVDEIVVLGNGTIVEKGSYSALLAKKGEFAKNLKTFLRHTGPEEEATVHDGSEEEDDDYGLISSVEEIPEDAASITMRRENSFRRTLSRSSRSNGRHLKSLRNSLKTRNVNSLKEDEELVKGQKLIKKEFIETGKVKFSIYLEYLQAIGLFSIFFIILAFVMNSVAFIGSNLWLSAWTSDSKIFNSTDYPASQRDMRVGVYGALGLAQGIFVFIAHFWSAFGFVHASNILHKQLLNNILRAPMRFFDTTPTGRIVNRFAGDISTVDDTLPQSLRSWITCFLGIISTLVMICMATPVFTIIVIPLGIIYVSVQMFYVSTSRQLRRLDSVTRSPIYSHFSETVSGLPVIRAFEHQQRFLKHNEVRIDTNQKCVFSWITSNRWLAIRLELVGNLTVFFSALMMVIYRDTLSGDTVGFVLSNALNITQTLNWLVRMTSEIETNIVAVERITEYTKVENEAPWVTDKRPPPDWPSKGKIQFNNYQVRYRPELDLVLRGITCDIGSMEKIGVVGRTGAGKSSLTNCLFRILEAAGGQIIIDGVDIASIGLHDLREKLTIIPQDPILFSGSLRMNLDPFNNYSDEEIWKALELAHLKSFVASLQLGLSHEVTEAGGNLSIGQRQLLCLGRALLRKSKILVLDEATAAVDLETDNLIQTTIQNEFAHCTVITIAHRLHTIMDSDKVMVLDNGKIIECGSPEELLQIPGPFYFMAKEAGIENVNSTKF
Text: as §1, §2, §3

OATP1B3 = target: T3, OATP1B3 (Homo sapiens, UniProt Q9NPD5); test: OATP1B3 inhibition, Fluo 3 uptake in transfected CHO cells; format: cell-based
T3 construct: host or cells: CHO
T3 sequence (Q9NPD5 1-702): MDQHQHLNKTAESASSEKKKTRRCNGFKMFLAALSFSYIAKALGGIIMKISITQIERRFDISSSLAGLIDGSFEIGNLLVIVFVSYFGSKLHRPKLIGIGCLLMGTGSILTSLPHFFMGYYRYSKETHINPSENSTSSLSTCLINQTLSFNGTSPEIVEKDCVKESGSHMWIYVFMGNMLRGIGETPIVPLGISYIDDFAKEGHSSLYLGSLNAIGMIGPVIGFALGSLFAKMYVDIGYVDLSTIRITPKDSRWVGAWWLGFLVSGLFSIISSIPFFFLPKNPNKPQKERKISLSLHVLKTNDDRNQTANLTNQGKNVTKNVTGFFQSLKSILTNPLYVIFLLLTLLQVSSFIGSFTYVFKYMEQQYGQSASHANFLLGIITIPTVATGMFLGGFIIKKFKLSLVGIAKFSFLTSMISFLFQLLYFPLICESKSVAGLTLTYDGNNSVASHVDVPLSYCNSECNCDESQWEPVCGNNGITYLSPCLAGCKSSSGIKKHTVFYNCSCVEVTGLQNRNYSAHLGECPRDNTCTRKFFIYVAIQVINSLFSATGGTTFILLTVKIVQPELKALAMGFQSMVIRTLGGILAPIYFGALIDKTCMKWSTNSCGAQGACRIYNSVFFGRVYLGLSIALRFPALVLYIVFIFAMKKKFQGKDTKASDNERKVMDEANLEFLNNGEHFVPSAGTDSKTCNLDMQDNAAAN
Text: as §1
CHO cells, either wild type or transfected with the genes encoding human NTCP, OATP1B1 and OATP1B3, were maintained in Dulbecco’s Modification of Eagle’s Medium (DMEM) containing 1,000 mg/L D-glucose, L-glutamine, 25 mM HEPES buffer, 110 mg/L sodium pyruvate, 1% Penicillin/Streptomycin, 10% fetal bovine serum (FBS), 0.05 mg/mL L proline and 0.5 mg/mL of geneticin G-418. Cells were maintained in incubators set at 37°C, 90% humidity and 5% CO2. OATP1B1 and OATP1B3 over-expressing cells were seeded in BioCoat Poly-D-Lysine coated 96-well black cell culture plates with clear bottoms at a density of 1×10^5 cells/well. Sodium butyrate (10 mM) was added to the OATP1B1 and OATP1B3 cells once seeded to increase the protein expression level and the cells were grown to confluence overnight. The assay buffer contained 142 mM NaCl, 5 mM KCl, 1 mM KH2PO4, 1.2 mM MgSO4, 1.5 mM CaCl2, 5 mM Glucose and 12.5 mM HEPES (pH 7.4). After removal of the media and before adding test compounds, the cells were washed twice with 37°C assay buffer followed by a 0.5 h pre-incubation with assay buffer. […] Wells were analyzed for Fluo 3 fluorescence at an excitation of 485 nm and emission of 530 nm. Inhibition of NTCP was studied using similar conditions to those described for OATP1B1 and OATP1B3 except that inhibition of the uptake ^3H taurocholate into transfected CHO cells was monitored using radioactive scintillation counting.
All assays were performed in duplicate. […] IC50 values were calculated using non-linear fitting of % inhibition versus concentration to a sigmoidal curve with a variable Hill Coefficient using GraphPad Prism 5 (GraphPad Software Inc., San Diego, CA).

NTCP = system: NTCP; parameters: method as in PMID 20628435; details: concentrations tested 2, 20, and 100 µM, Hartman et al. ref 29; cited from earlier work
[1] = CHO cells, Fluo 3, mean ± SD of 3 independent studies in duplicate, tested 0.14–100 µM, read-out: OATP1B3 IC50

Row | IC50 (MRP2) | IC50 (OATP1B3; [1]) | IC50 (OATP1B3) | SMILES | IC50 (BSEP) | inhibition of NTCP (NTCP)
1 | > 100 µM | 2.1 ± 0.3 µM | – | CCCNS(=O)(=O)Nc1ncnc(OCCOc2ncc(Br)cn2)c1-c1ccc(Br)cc1 [macitentan] | 12 µM and 11.9 µM | –
2 | – | – | – | Cc1cc2c(cc1CC(=O)c1sccc1S(=O)(=O)Nc1onc(C)c1Cl)OCO2 [sitaxsentan] | – | inhibited
3 | ~75 µM | – | 44.6 ± 23.8 µM | COC(c1ccccc1)(c1ccccc1)[C@H](Oc1nc(C)cc(C)n1)C(=O)O [ambrisentan] | > 100 µM | did not
4 | > 100 µM | 5.2 ± 2.1 µM | – | COc1ccccc1Oc1c(NS(=O)(=O)c2ccc(C(C)(C)C)cc2)nc(-c2ncccn2)nc1OCCO [bosentan] | 42 µM and 42.1 µM | inhibited
